Data reported in patent US6593372B2, “Therapeutic uses for nitric oxide inhibitors” (Cold Spring Harbor Laboratory, priority 1996, dated 2003).
Marks after values point to notes of the source that are not given here.

Experiments:
[1] = system: tadpole brain, optic tectum; assay: Elvax implants with NO donor or NOS inhibitor in brain ventricle of stage 45 tadpoles, optic tectum analysis; format: in vivo; details: for BrdU-positive cells (total), change / BrdU-positive cells per 10^3 cells, change / TUNEL-positive cells (total), change / TUNEL-positive cells per 10^3 cells, change / brain volume, change / cell density, change / cell number, change: vs saline control
Method: To test the effect of exogenously supplying NO to the developing tadpole brain, pieces of the slow-release matrix Elvax impregnated either with S-nitroso-N-acetylpenicillamin (SNAP, a widely used donor or NO which releases NO upon hydrolysis), or with saline as a control were inserted into the brain ventricle of state 45 tadpoles. At 1 or 3 days after implantation the following parameters in the optic tectum were analyzed: the total number of cells (as measured by the number of DAPI-stained nuclei), the number of S phase proliferating cells (as measured by BrdU incorporation), the number of apoptotic cells (as measured by TUNEL assay), the relative numbers of BrdU- and TUNEL-positive cells per 10^3 total cells, the size of the optic tectum, and the cell density in the tectum (Table 5). […] At 3 days the effects of NO on cell proliferation are less pronounced, likely reflecting the complete hydrolysis of the NO donor and the cessation of NO release. […] An increase in programmed cell death in response to NO likely contributes to the decrease in the total number of cells in the brain.
The close proximity of proliferating cells and NOS-expressing cells in the optic tectum and data from the NO donor experiments above are consistent with the proposed antiproliferative role of NO during Xenopus brain development. To test the causative role of NO in cell cycle arrest of neuronal precursors and to determine whether production of NO is necessary for cell cycle arrest and subsequent differentiation of neuronal precursors in the developing Xenopus brain, NOS activity in the brain was inhibited by using Elavax matrix impregnated with a NOS inhibitor, either L-NAME or ETU, or with saline as a control. Pieces of impregnated matrix were inserted into the brain ventricle of stage 45 tadpoles. After 3 days of treatment the brains were examined for changes in the patterns of cell division and differentiation, cell number, and overall size and morphology.
Animals, NOS inhibitors, and NO donors. Albino Xenopus laevis tadpoles were obtained by human chorionic gonadotrophin induced matings and raised under standard conditions. At state 45^5, animals were anesthetized in 0.02% 3-aminobenzoic acid (MS-222; Sigma) and a tiny piece (100 μm^2×30 μm) of slow release Elvax plastic polymer (Dupont) was inserted into the tectal ventricle through an incision made in the overlying skin with a 30 gauge needle. Elvax was prepared with stock concentrations of the NOS inhibitors, 2-ethyl-2thiopseudourea (ETU, Sigma) or L-nitro-arginine methyl ester (L-NAME, Sigma) or the NO donor S-nitroso-acetylpenicillamnin (SNAP, Sigma) prepared as a 1:10 ratio of chemical to polymer matrix. Low molecular weight molecules, including L-NAME, are released at a constant rate over a period up to 30 days as the lyophilized Elvax matrix slowly hydrates. […] Control animals were treated with Elvax impregnated with saline (0.1 M phosphate buffer).
Histochemistry and antibodies. Immunocytochemistry with wholemount preparations and sections of the tadpole was performed as described. Monoclonal antibodies to β-II tubulin, N-CAM (developed by U. Rutishauser), and Islet-1 (developed by T. M. Jessell) were obtained from the Developmental Studies Hybridoma Bank developed under the auspices of the NICHD and maintained by the University of Iowa, Department of Biological Sciences, Iowa City, Iowa 52243. Anti-mouse antibody conjugated to fluorescein (Bochringer Manheim) was used as a secondary antibody. Specimens were visualized and photographed under fluorescence or Normarski optics on a Zeiss Axiophot. For nuclei visualization, brain sections were stained with DAPI, a fluorescent DNA stain (Molecular Probes) at 1 μM. To identify cells in S phase tadpoles were injected with 50 μg/ml 5-Bromo-deoxyuridine (BrdU) (Beckton-dickinson). After two hours survival, animals were fixed in 3.7% paraformaldehyde for 2 hours and then in 70% ethanol overnight. […]

[2] = system: transplanted BM cells, membrane colonies; assay: Hemopoietic colonies on cellulose acetate membranes in the peritoneal cavity of irradiated mice (myeloid differentiation); format: in vivo; details: 7-8 days
Method: To study the formation of cells of the myeloid lineage, cellulose acetate membranes were implanted in the peritoneal cavity of mice. After 7 days, when a layer of fibroblasts had covered the membranes, the mice were irradiated as described above. BM cells from syngeneic donors were injected (10^5 BM cells per mice) in the peritoneal cavity of the recipients. Animals received injections of NOS inhibitors as described above. Membranes with growing colonies were isolated and analyzed 7-8 days later.
The differentiation status of the colonies in the spleen was evaluated by morphological criteria, myeloperoxidase reaction, and by immunohistochemical tests for the presence of receptors to various cytokines, which are present only at specific stages of the myeloid cells' maturation. […] A much smaller fraction contained undifferentiated blasts cells (6%), and a very small fraction of colonies contained erythroid cells (1.3%). In contrast, when animals were treated with NOS inhibitors after BM transplantation, most of the colonies on the membranes (up to 85%) contained and undifferentiated blasts cells. Colonies with differentiated cells of the granulocyte lineage comprised only 15.6% of the total number of colonies, and a negligible fraction of the colonies (<0.5%) contained erythroid cells. The results were similar with two structurally unrelated NOS inhibitors, confirming the specificity of their action. Thus, prolonged treatment of recipient mice after BM transfer with NOS inhibitor, reversed the ratio of blast cells-contiaing colonies to the granulocytic colinies almost 80-fold, effectively preventing myeloid differentiation.

[3] = system: transplanted BM cells, spleen colonies; assay: Hemopoietic colonies in spleens of irradiated mice after BM transplantation and injection of NOS inhibitors (erythroid differentiation); format: in vivo; details: 9-10 days after transplantation
Method: To study the formation of cell of the erythroid lineage in the spleen of the irradiated recipient mice, the animals (females of F1 CBA×C57B1 hybrids weighing 22-24 g) were treated with 750 cGy total body irradiation within 3-4 hours before transplantation. This dosage was tested to be enough for complete suppression of hematopoiesis in the irradiated recipient animals. BM cells were flushed from the femurs of syngeneic donors and injected intravenously (10^5 BM cells per mice) in the recipients. The animals received twice a day injections of 100 mg/kg of L-NAME and D-NAME and 10 mg/kg of ETU for 7-10 days. Mice were analyzed 9-10 days after transplantation.
In contrast, when animals were treated with NOS inhibitors after BM transplantation, most of the colonies in the spleen contained undifferentiated blast cells (up to 85% of blast cells colonies and mixed blast erythroid cells colonies). Erythroid colonies comprised only 15% of the total number of colonies, and the megakaryocyte and granulocyte colonies were not detectable. The results were similar with two structurally unrelated NOS inhibitors, confirming the specificity of their action. Thus, prolonged treatment of recipient mice after BM transfer with NOS inhibitor, reversed the ratio of blast cells-containing colonies to the erythroid cells-containing colonies almost 16 fold, effectively preventing erythroid differentiation.

[4] = system: Drosophila melanogaster larvae; assay: Adult fly phenotype (leg segment hypertrophy) after injection of NOS inhibitors into third instar larvae; format: in vivo; details: adults after injection of late third instar larvae
Method: Chemicals were dissolved in Schneider's solution at concentrations of 0.1 M for L-NAME and D-NAME and 0.01M for ETU and mixed with Freund's adjuvant (Sigma) in 1:3 ratio. Amounts of 5-10 nl were microinjectd in staged late third instar using a glass needle.
To test this hypothesis, NOS activity was inhibited by injecting specific NOS inhibitors in the developing larvae at the end of the third instar, several hours before metamorphosis. Most of the larvae completed metamorphosis successfully, giving rise to adult flies within the normal time frame. The resulting adults differed from normal flies in many respects, the most dramatic being enlargements of the appendages and other structures of the fly body. The changes included a) hypertrophy of the demur, tibia and the segments of the tarsus; b) overgrowth of the tissues originating from the genital discs; in extreme cases, these cells contributed to more than one-quarter of the fly body; c) and increase of the overall surface of the wings; d) overgrowth of the cells of tergites and sternites; e) hypertrophy of the humerus; f) occasional duplications of some areas of the eye; g) occasional realformation of genital structures, legs and eyes; and h) occasional ectopic formation of misplaced body structures.
The changes were most profound in, and most often affected the legs of, the adults. […]

BM cells [5] = assay: Hematopoietic markers in BM cells of irradiated mice after injection of NOS inhibitors; format: in vivo; details: 7-10 days after transplantation; for c-kit positive BM cells: control 2%; for IL-3-R positive BM cells: control 7%; for GM-CSF-R positive BM cells: control 18%; for G-CSF-R positive BM cells: control 24%
Method: To study the maturation of hematopoietic cells in the bone marrow of the irradiated recipient mice, the animals were treated as described above and the BM cells from the demurs of syngeneic donors were injected intravenously (10^5 BM cells per mice) in the recipients.
The BM cells were tested for the presence of various growth factor receptors which serve as markers of the differentiation stage and indicate the presence of stem cells and multipotent percursor cells. The BM preparations were tested for cells expressing receptors to HSF (ligand of c-kit), GM-CSF, G-CSF and IL-3.

[6] = system: tadpole brain, optic tectum; assay: Elvax implants with NO donor or NOS inhibitor in brain ventricle of stage 45 tadpoles, optic tectum analysis; format: in vivo; details: 7d
developing Xenopus brain = assay: Plastic impregnated with NOS inhibitors in brain ventricle of stage 43 tadpoles (BrdU, TUNEL); format: in vivo, Xenopus laevis; details: stage 43 tadpoles, 3, 7 and 12 days, vs control brains
Method: After 3, 7 and 12 days, animals were examined for changes in the patterns of cell division, differentiation, survival, and morphology of the brain. […] Whether the inhibition of NOS and excessive proliferation of cells in the developing brain affects the programmed death of neurons in the tectum was tested. […] The increase in the number of TUNEL-positive cells is not due to toxicity of the inhibitors, since cells continued to incorporate BrdU very effectively. […] Alternatively, this may indicate that differentiated neurons became dependent on NO for survival, similar to the situation in fully differentiated PC12 cells (Peunova et al., 1996). Neuronal differentiation in the brain is affected

BM cells [7] = assay: TUNEL apoptosis in BM cells after prolonged treatment with NOS inhibitors; format: in vivo; details: control 8+/−3%
Description: To test whether prolonged treatment with NOS inhibitors affects the rate of programmed cell death in BM cells, the number of aproptotic cells in the preparation of BM cells was examined.

## CC(=O)N[C@H](C(=O)O)C(C)(C)SN=O (racemic) [SNAP, S-nitroso-N-acetylpenicillamine]
[1]; 1d
  BrdU-positive cells (total): 12 +/− 2
  BrdU-positive cells per 10^3 cells: 3
  TUNEL-positive cells (total): 138 +/− 12
  TUNEL-positive cells per 10^3 cells: 34
  brain volume: 66.2 +/− 6.4 mm^3 × 10^−4
  cell density: 62.6 +/− 14.1 cells per mm^3 × 10^−4
  cell number: 3983 +/− 606
  BrdU-positive cells (total), change: −96.2%
  BrdU-positive cells per 10^3 cells, change: −95.2%
  TUNEL-positive cells (total), change: −28.2%
  TUNEL-positive cells per 10^3 cells, change: −10.5%
  brain volume, change: −15.6%
  cell density, change: −2.8%
  cell number, change: −20.7%
[1]; 3d
  BrdU-positive cells (total): 316 +/− 22
  BrdU-positive cells per 10^3 cells: 63
  TUNEL-positive cells (total): 82 +/− 10
  TUNEL-positive cells per 10^3 cells: 16
  brain volume: 80.1 +/− 8.6* mm^3 × 10^−4
  cell density: 62.3 +/− 1.7** cells per mm^3 × 10^−4
  cell number: 5012 +/− 594**
  BrdU-positive cells (total), change: −34.0%
  BrdU-positive cells per 10^3 cells, change: +21.1%
  TUNEL-positive cells (total), change: −51%
  TUNEL-positive cells per 10^3 cells, change: −11.1%
  brain volume, change: −31.3%
  cell density, change: −20.8%
  cell number, change: −45.1%
[1]; Elvax stock, range of concentrations tested
  stock concentration found to be effective: 300 mM
[1]; day 1
  number of proliferating cells, of the control value: 5%

## COC(=O)[C@H](N)CCCN=C(N)N[N+](=O)[O-] [D-NAME, D-nitroarginine methyl ester]
[2]
  blast cell colonies: 6%
  erythroid colonies: 1.3%
  granulocytic colonies: 92%
[3]
  blast cell and erythroid cells colonies: 13%
  erythroid colonies: > 60%
  granulocyte colonies: 4%
  megakaryocyte colonies: 7.5%
[3]; injections twice a day
  blast cell colonies: 14%
[4]
  increase of diameter of certain leg segments (hypertrophy, third pair of legs): not
BM cells [5]
  c-kit positive BM cells: 7%
  IL-3-R positive BM cells: 12%
  GM-CSF-R positive BM cells: 16%
  G-CSF-R positive BM cells: 19%

## CCSC(=N)N [ETU, 2-ethyl-2-thiopseudourea]
BM cells [5]
  c-kit positive BM cells: 84%
  IL-3-R positive BM cells: 83%
  GM-CSF-R positive BM cells: 10%
  G-CSF-R positive BM cells: 8%
[6]
  cell density: 105 +/− 3* cells per mm^3 × 10^−4
[6]; vs saline control
  BrdU-positive cells (total), change: +269%
  cell density, change: +25.5%
[1]; 7d
  BrdU-positive cells (total): 550 +/− 50
  BrdU-positive cells per 10^3 cells: 42
  TUNEL-positive cells (total): 184 +/− 7
  TUNEL-positive cells per 10^3 cells: 14
  brain volume: 122.3 +/− 4.3* mm^3 × 10^−4
  cell number: 12870 +/− 690*
  BrdU-positive cells per 10^3 cells, change: +247%
  TUNEL-positive cells (total), change: +128%
  TUNEL-positive cells per 10^3 cells, change: +40.0%
  cell number, change: +53.7%
[1]; Elvax stock 1 M L-NAME, 10 mM ETU, increased BrdU incorporation
  toxicity to the animals: without any signs of toxicity
Developing Xenopus brain
  number of cells in the S phase (BrdU labeling) in the brain: dramatic increase
BM cells [7]
  proportion of apoptotic cells (TUNEL) in BM: 8%
